In ChEMBL document CHEMBL1201862, “PubChem BioAssay data set” (2004):
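Each compound was tested at five concentrations against cells in 96-well plates for 48 hours. Abbreviation: GI50, concentration required for 50% inhibition of growth.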 Active and inactive are the calls of the source. No stated cut-off is given here; in the data, active = GI50 up to about 1.1 µM and inactive = higher.

What was measured:
Test in all cases: NCI-60 cell line screen, 48 h
BT-549 = system: BT-549
EKVX = system: EKVX
Hs-578T = system: Hs-578T
IGROV-1 = system: IGROV-1
LOX IMVI = system: LOX IMVI
M14 = system: M14
NCI-H460 = system: NCI-H460
RPMI-8226 = system: RPMI-8226
SF-268 = system: SF-268
SF-539 = system: SF-539
SK-MEL-28 = system: SK-MEL-28
SK-MEL-2 = system: SK-MEL-2
SK-MEL-5 = system: SK-MEL-5
T47D = system: T47D
TK-10 = system: TK-10
U-251 = system: U-251
UACC-257 = system: UACC-257
UO-31 = system: UO-31
RXF 393 = system: RXF 393
Malme-3M = system: Malme-3M

Measured: GI50

CC1NC(=O)C2Cc3ccc(O)c(c3)Oc3ccc(cc3)C(O)C(C(=O)N2C)N(C)C(=O)C(C)NC(=O)C(Cc2ccc(O)cc2)N(C)C(=O)C(C)NC1=O (stereo not given)
inactive: BT-549 24.6 µM | EKVX 57 µM | Hs-578T 5.09 µM | IGROV-1 4.85 µM | LOX IMVI 5.43 µM | M14 63.2 µM | NCI-H460 31.3 µM | RPMI-8226 12 µM | SF-268 4.03 µM | SF-539 6.71 µM | SK-MEL-28 19.2 µM | SK-MEL-2 8.41 µM | SK-MEL-5 31.6 µM | T47D 15.9 µM | TK-10 > 100 µM | U-251 9.48 µM | UACC-257 13.6 µM | UO-31 > 100 µM

CC(=O)Nc1ccc(C(=O)NN2C(=O)CSC2c2ccc(O)cc2)cc1 (stereo not given)
inactive: BT-549 > 100 µM | EKVX > 100 µM | Hs-578T > 100 µM | IGROV-1 > 100 µM | M14 > 100 µM | NCI-H460 > 100 µM | RPMI-8226 > 100 µM | RXF 393 > 100 µM | SF-268 > 100 µM | SF-539 > 100 µM | SK-MEL-28 > 100 µM | SK-MEL-2 > 100 µM | SK-MEL-5 > 100 µM | T47D > 100 µM | TK-10 > 100 µM | U-251 > 100 µM | UACC-257 > 100 µM | UO-31 > 100 µM

O=C1NCCCNCCCNCCCNC(=O)c2cccc1n2
inactive: BT-549 > 100 µM | EKVX > 100 µM | Hs-578T > 100 µM | IGROV-1 > 100 µM | LOX IMVI > 100 µM | M14 > 100 µM | Malme-3M > 100 µM | NCI-H460 > 100 µM | RPMI-8226 > 100 µM | RXF 393 18.1 µM | SF-268 > 100 µM | SF-539 > 100 µM | SK-MEL-28 > 100 µM | SK-MEL-2 63.2 µM | SK-MEL-5 > 100 µM | TK-10 > 100 µM | U-251 > 100 µM | UACC-257 > 100 µM | UO-31 > 100 µM

COc1cc(OC)c2nc(C)c(CCCl)c(Cl)c2c1
inactive: BT-549 > 100 µM | EKVX > 100 µM | Hs-578T > 100 µM | IGROV-1 > 100 µM | LOX IMVI > 100 µM | M14 > 100 µM | Malme-3M > 100 µM | NCI-H460 > 100 µM | RPMI-8226 > 100 µM | RXF 393 > 100 µM | SF-268 > 100 µM | SF-539 > 100 µM | SK-MEL-28 > 100 µM | SK-MEL-2 > 100 µM | SK-MEL-5 > 10 µM | TK-10 > 100 µM | U-251 > 100 µM | UACC-257 > 100 µM | UO-31 > 100 µM

CC(C)(C)OC(=O)Cn1ncn(NC(=O)Cc2ccccc2)c1=S
inactive: BT-549 > 10 µM | EKVX > 10 µM | Hs-578T > 10 µM | IGROV-1 > 10 µM | LOX IMVI > 10 µM | M14 > 10 µM | Malme-3M > 10 µM | NCI-H460 > 10 µM | SF-268 > 10 µM | SF-539 > 10 µM | SK-MEL-28 > 10 µM | SK-MEL-5 > 10 µM | T47D > 10 µM | TK-10 > 10 µM | U-251 > 10 µM | UACC-257 > 10 µM | UO-31 > 10 µM

O=C1C(Cl)=C(NCCc2ccc(O)cc2)C(=O)c2c(O)ccc(O)c21
inactive: BT-549 > 10 µM | EKVX > 10 µM | IGROV-1 > 10 µM | LOX IMVI 7.66 µM | M14 > 10 µM | Malme-3M 1.88 µM | NCI-H460 7.46 µM | RPMI-8226 > 10 µM | SF-268 9.12 µM | SF-539 6.58 µM | SK-MEL-2 8.28 µM | SK-MEL-5 3.72 µM | T47D > 10 µM | TK-10 > 10 µM | U-251 > 10 µM | UACC-257 4.74 µM

Cc1cc(=O)[nH]c2cc(NC(=O)C(C)NC(=O)C(C)NC(=O)C(C)NC(=O)OC(C)(C)C)ccc12 (stereo not given)
inactive: BT-549 > 15 µM | EKVX > 15 µM | Hs-578T > 15 µM | IGROV-1 > 15 µM | LOX IMVI > 15 µM | M14 > 15 µM | NCI-H460 > 15 µM | RXF 393 > 15 µM | SF-268 > 15 µM | SF-539 > 15 µM | SK-MEL-28 > 15 µM | SK-MEL-2 > 15 µM | SK-MEL-5 > 15 µM | T47D > 15 µM | TK-10 > 15 µM | U-251 > 15 µM | UACC-257 > 15 µM | UO-31 > 15 µM
